Experimental data reported in US20250221953A1 (The University of Chicago, priority 2022, published 2025).

What was measured:
[1] = test system: mouse primary CD8^+ T cells; assay: In vitro function of activated mouse primary CD8+ T cells (cytokines, Ki-67, apoptosis, p-CREB); type: cell-based; conditions: for effect of inhibitor/modulator on TVA-enhanced activation of CD8+ T cells (IL-2, TNF-α, IFN-γ): added synchronized with 20 μM TVA for 24 hours, SCH-202676 200 nM, H-89 200 nM, 666-15 100 nM
Experimental: For experiments with live/dead criteria, cells were first stained with Fixable Viability Dyes (FVD) (Thermo Fisher Scientific) according to the manufacturer's instructions. Subsequent surface marker staining was performed in Flow Cytometry Staining Buffer (Thermo Fisher Scientific). Intracellular staining for flow panels containing nuclear proteins was performed using the eBioscience FoxP3/Transcription Factor Staining Buffer Set (Thermo Fisher Scientific) according to the manufacturer's instructions. For intracellular staining of cytoplasmic proteins, the Fixation/Permeabilization Solution Kit (BD Biosciences) was used according to the manufacturer's instructions. […] The cell pellets were washed again with FACS buffer, centrifuged at 300×g for 5 minutes, and incubated with antibodies in FACS buffer for 45 minutes-1 hour at room temperature. […] Treatment with sulfosuccinimidyl oleate (SSO) was performed by incubating cells with 100 μM SSO for 24 hours.

[2] = test system: Mouse CD8^+ T cell; assay: Second screen: IL-2 level of mouse CD8+ T cells
[3] = test system: Mouse CD4^+ T cell; assay: Second screen: IL-2 level of mouse CD4+ T cells
[4] = test system: Mouse T cell; assay: Second screen: IL-2 level of murine primary T cells; type: cell-based
Text: Two preliminary screens were designed and performed.

[5] = test system: Jurkat T cells; type: cell-based, human; conditions: IL-2 production level in treated group compared to control group; 48 hours treatment, then anti-CD3/anti-CD28 12 hours
[6] = test system: mouse melanoma B16 cells with CD8+ T cells; assay: CD8+ T cell mediated killing of B16 cells in vitro; type: cell-based
[7] = test system: murine melanoma B16 cells; assay: Oral gavage in syngeneic mice inoculated with B16 cells; type: in vivo, mouse
[8] = test system: B cell acute lymphoblastic leukemia (B-ALL); conditions: Kantarjian et al., 2017; cited from earlier work
[9] = test system: B16F10 tumor; assay: Mouse tumor model, B16F10; type: in vivo; conditions: B16F10 tumor-bearing C57BL/6 mice on enriched diet vs control diet
Experimental: For C57BL/6 mice and TCR-a KO mice tumor model, mice were anesthetized with isoflurane, shaved the injection site, and then injected subcutaneously in the abdominal flank with 1×10^5 B16F10, MC38, or LLC1 cells, or in the mammary gland with 2×10^5 E0771 cells. C57BL/6 nude mice were injected subcutaneously in the abdominal flank with 1×10^5B16F10 cells. […] Tumors were measured the tumors using a caliper every 2-3 days. Tumor volumes were calculated using the following formula: length×width×[(length×width)^0.5]×π/6. Mice were euthanized at humane endpoints or day 11-15 for tissue collection.
The mice were treated once a day for 5 consecutive days per week for 2 weeks. Tumors were measured the tumors using a caliper every 2-3 days. Tumor volumes were calculated using the following formula: length×width×[(length×width)^0.5]×π/6. Mice were euthanized at humane endpoints.
For anti-PD-1 treatment mouse model, 6-8 weeks old C57BL/6 mice were anesthetized with isoflurane, shaved the injection site, and then injected subcutaneously in the abdominal flank with 1×10^5 B16F10 for tumor development. […] In day 3, 6, 9, 12, and 15, 250 μg anti-PD-1 (BioXCell) or IgG control (BioXCell) was injected intraperitoneally per mouse. Tumors were measured the tumors using a caliper every 2-3 days. Tumor volumes were calculated using the following formula: length×width×[(length×width)^0.5]×π/6. […]

[10] = test system: mouse primary CD8^+ T cells; assay: 13C1-TVA metabolic flux analysis by GC-MS; type: cell-based; conditions: 100 μM SSO, 24 hours
Experimental: Samples were kept at room temperature after centrifugation to form two distinct phases. 650 μL of the bottom dichloromethane fraction was transferred into a new glass tube and dried with nitrogen gas to obtain a lipid fraction pellet. […] FAME cleanup was applied if analyzing animal tissues (FAME Cleanup: a Florisil column was pre-conditioned with 3 mL of hexane, added methyl ester, and eluted twice with 1 mL isohexane-diethyl ether (95:5 v/v), with drying down in between elutions). Otherwise, samples were dried down under nitrogen and re-suspended in 50 μL of hexane to load onto gas chromatography (GC) mass spectrometry (MS). […] Metabolite levels and mass isotopomer distributions of derivatized fragments were analyzed with an in-house MATLAB script, which integrated the metabolite fragment ions and corrected for natural isotope abundances.

| Molecule | Relative changed percentage (%) [5] | further results |
| --- | --- | --- |
| Br.CN=c1nc(-c2ccccc2)n(-c2ccccc2)s1 [SCH 202676 hydrobromide, reference compound] |  | effect of inhibitor/modulator on TVA-enhanced activation of CD8+ T cells (IL-2, TNF-α, IFN-γ) [1]: abolishes TVA-enhanced activation of CD8^+ T cells |
| D-Glycerate 2,3-diphosphate sodium salt | 47.74% | Mouse CD8^+ T cell IL-2 level changes after treatment [2]: 121.4%; Mouse CD4^+ T cell IL-2 level changes after treatment [3]: 97.9%; Mouse T cell IL-2 level changes after treatment [4]: 106.2% |
| C-PEPTIDE FRAGMENT 3-33, HUMAN/C-peptide [#203] |  | CD8+ T cells mediated killing of mouse melanoma B16 cells [6]: enhances CD8+ T cells mediated killing of mouse melanoma B16 cells; killing and CD8 T cell function compared with TVA [6]: better than cells treated with TVA; anti-tumor immunity [7]: increased anti-tumor immunity in a dose dependent manner |
| OC[C@H]1OC(O)[C@H](O)[C@@H](O)[C@H]1O (stereo partly drawn) [D(+)-GALACTOSE ANHYDROUS] | 35.84% | Mouse CD8^+ T cell IL-2 level changes after treatment [2]: 130.3%; Mouse CD4^+ T cell IL-2 level changes after treatment [3]: 110.4%; Mouse T cell IL-2 level changes after treatment [4]: 130.1% |
| Cl.Cl.O=S(=O)(NCCNC/C=C/c1ccc(Br)cc1)c1cccc2cnccc12 [Compound H89, H 89 Dihydrochloride, reference compound] |  | effect of inhibitor/modulator on TVA-enhanced activation of CD8+ T cells (IL-2, TNF-α, IFN-γ) [1]: similarly abolishes TVA-enhanced activation of CD8^+ T cells |
| Cc1cn([C@H]2C[C@H](O)[C@@H](CO)O2)c(=O)[nH]c1=O [THYMIDINE] | 39.63% | Mouse CD8^+ T cell IL-2 level changes after treatment [2]: 128.9%; Mouse CD4^+ T cell IL-2 level changes after treatment [3]: 135.8%; Mouse T cell IL-2 level changes after treatment [4]: 145.6% |
| Nc1nc2nc[nH]c2c(=O)[nH]1 [GUANINE] | 15.14% | Mouse CD8^+ T cell IL-2 level changes after treatment [2]: 150.8%; Mouse CD4^+ T cell IL-2 level changes after treatment [3]: 110.4%; Mouse T cell IL-2 level changes after treatment [4]: 148.6% |
| Blinatumomab: bi-specific T-cell engager (BiTE) targeting CD19 antigen on B cells and CD3 on T cells |  | response rate in relapsed disease [8]: < 50% |
| CCCCCC/C=C\CCCCCCCCCC(=O)O [CVA, cis-Vaccenic acid, reference compound] |  | body weights of mice [9]: did not alter body weights |
| CCCCCCCC/C=C\CCCCCCCC(=O)ON1C(=O)CC(S(=O)(=O)O)C1=O (stereo not shown) [SSO, sulfosuccinimidyl oleate, reference compound] |  | effect on import of 13C-TVA into CD8+ T cells [10]: drastically reduced import of ^13C-TVA; effect of SSO on TVA-dependent CD8+ T cell activation ([1]; 100 μM SSO, TNF-α, IFN-γ): does not affect TVA-dependent CD8^+ T cell activation |
| Nc1ccc(C(=O)O)cc1 [p-Aminobenzoic Acid] |  | Mouse CD8^+ T cell IL-2 level changes after treatment [2]: 145.2%; Mouse CD4^+ T cell IL-2 level changes after treatment [3]: 140.5%; Mouse T cell IL-2 level changes after treatment [4]: 160.3% |
| CC(=O)O [acetate, reference compound] |  | enhanced CD8+ T cell activation by pre-treatment with 20 μM TVA (TVA first) ([1]; TVA 12 hours, then 20 mM acetate 12 hours): cannot be reversed by 20 mM acetate; CD8+ T cell activation (TNF-α, IFN-γ levels) ([1]; increasing concentrations of acetate up to 20 mM): attenuate CD8^+ T cell activation |
| O=C([O-])[C@H](O)[C@@H](O)[C@H](O)[C@H](O)CO.[K+] [Potassium Gluconate] | 97.7133% |  |
| CS(C)(=O)=O [Methylsulfonylmethane] | −17.53% |  |
| LEPTIN | 27.09% |  |
| O=C([O-])CC(O)(CC(=O)[O-])C(=O)[O-].O=C([O-])CC(O)(CC(=O)[O-])C(=O)[O-].[Ca+2].[Ca+2].[Ca+2] [Calcium citrate] | −14.58% |  |
| C[C@]12CC[C@@H]3c4ccc(O)cc4CC[C@H]3[C@@H]1C[C@@H](O)[C@@H]2O [ESTRIOL] | 2.789% |  |

| Molecule | Relative changed percentage (%) [5] | further results |
| --- | --- | --- |
| CCCCC/C=C\C/C=C\C/C=C\C/C=C\CCCC(=O)O [Arachidonic acid] | 4.583% |  |
| N[C@@H](CC(=O)[O-])C(=O)[O-].[Mg+2] [Magnesium Aspartate] | −4.156% |  |
| O=C(O)c1cccnc1 [Nicotinic Acid] | 205.6% |  |
| N[C@@H](Cc1ccccc1)C(=O)O [L-Phenylalanine] | −17.2378% |  |
| N[C@@H](CS)C(=O)O [L-CYSTEINE BIOULTRA,, L-CYSTEINE] | −22.74% |  |
| [Br-].[K+] [POTASSIUM BROMIDE] | 78.36% |  |
| C[N+](C)(C)CCO.[Cl-] [Choline Chloride] | −41.11% |  |
| L-A-PHOSPHATIDYLCHOLINE TYPE XVI-E | 38.1% |  |
| C[N+](C)(C)CC(=O)O [BETAINE] | −18.83% |  |
| L-a-Phosphatidylcholine | −37.16% |  |
| Cc1c(O)cc2c(c1C)O[C@](C)(CCC[C@H](C)CCC[C@H](C)CCCC(C)C)CC2 [(+)-GAMMA-TOCOPHEROL] | 1.56% |  |
| Cl.NCCC[C@H](N)C(=O)O [L-ORNITHINE MONOHYDROCHLORIDE] | 8.054% |  |
| Cn1c(=O)c2c(ncn2C)n(C)c1=O [Caffeine] | 170.0384% |  |
| CC1=C(/C=C/C(C)=C/C=C/C(C)=C/C=C/C=C(C)/C=C/C=C(C)/C=C/C2=C(C)CCCC2(C)C)C(C)(C)CCC1 [all trans B carotene] | 35.08% |  |
| C[C@]12CCC(=O)C=C1CC[C@@H]1[C@@H]2CC[C@]2(C)C(=O)CC[C@@H]12 [ANDROSTENEDIONE] | 25.93% |  |
| Nc1cc[nH]c(=O)n1 [CYTOSINE] | 74.6228% |  |
| O=S(=O)([O-])[O-].[Cu+2] [COPPER(II) SULFATE, ANHYDROUS,/copper, COPPER(II) SULFATE, ANHYDROUS] | 51.65% |  |
